Target: T1, Human neutrophil elastase (Homo sapiens, UniProt P08246)
T1 construct: Enzyme was isolated from human sputum; from tissue; host or cells: human sputum
T1 sequence (P08246 30-267): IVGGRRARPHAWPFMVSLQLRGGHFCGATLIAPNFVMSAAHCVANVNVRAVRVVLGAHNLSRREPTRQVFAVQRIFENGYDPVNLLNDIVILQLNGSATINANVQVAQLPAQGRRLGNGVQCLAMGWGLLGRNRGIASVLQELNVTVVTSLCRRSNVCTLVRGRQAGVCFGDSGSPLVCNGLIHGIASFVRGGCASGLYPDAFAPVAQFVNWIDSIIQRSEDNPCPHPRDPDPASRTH
Test: In vitro assay of human neutrophil elastase in the presence of prodrug and porcine liver esterase
Format: biochemical
Settings: for time course / onset of inhibition of elastase compared with MDL 103,279: 66 nM compound + porcine liver esterase, FIG. 2
Method: Human neutrophil elastase was assayed in vitro using N-MeOSuc-Ala-Ala-Pro-Val-p-nitroanilide, available commercially, as substrate. The assay techniques are similar to those described by Mehdi, et al., Biochemical and Biophysical Research Communications, 166, 595 (1990). The assay mixture consisted of partially purified elastase and substrate (0.2 mM) in 0.1M HEPES (pH 7.5), 0.5M NaCl, 10% DMSO and 0.1% Brij 35. The reaction (3.0 mL, in a plastic cuvette) was maintained at 37° C. and the hydrolysis of the substrate was followed in the presence of 66 nM of MDL 103,279 and 12.5 units of porcine liver esterase (Sigma Chemical Co., cat. no. E-3128). Enzyme was isolated from human sputum, although recently it has become commercially available. The time course of the reaction was followed for 60 min. […] From the final rate, a Ki of 25 nM was calculated for the final inhibitory species, presumed to be MDL 101,146 (as disclosed in European Pat. Appl. OPI No. 0529568, published Mar. 3, 1993). This is consistent with the Ki obtained independently for MDL 101,146. The Ki for MDL 103,279, the prodrug, was estimated from the initial rate to be greater than 2 μM. To rule out interference of the esterase with the elastase assay, or a significant spontaneous (i.e. non-enzymatic) hydrolysis rate of MDL 103,279, the following control experiments, as portrayed in FIG. 1, were performed: (A) elastase+elastase substrate; (B) elastase+elastase substrate+porcine liver esterase; (C) elastase+elastase substrate+MDL 103,279; as well as (D) elastase+elastase substrate+esterase+MDL 103,279.

Row | half-time of the progressive increase in extent of inhibition of elastase (66 nM compound, 12.5 units porcine liver esterase, 37° C., followed for 60 min) | Ki (66 nM compound, 12.5 units porcine liver esterase, pH 7.5, 37° C., read-out: Ki of the prodrug estimated from the initial rate) [µM] | time course / onset of inhibition of elastase compared with MDL 103,279 | SMILES
1 | approximately 10 min | > 2 |  | CC(=O)OC(=C(NC(=O)[C@@H]1CCCN1C(=O)[C@@H](NC(=O)c1ccc(C(=O)N2CCOCC2)cc1)C(C)C)C(C)C)C(F)(F)C(F)(F)F [MDL 103,279, (E)-N-[4-(4-Morpholinylcarbonyl)benzoyl]-L-valyl-N-[2-(acetyloxy)-3,3,4,4,4-pentafluoro-1-(1-methylethyl)-1-butenyl]-L-prolinamide]
2 |  |  | same time course | CCC(=O)OC(=C(NC(=O)[C@@H]1CCCN1C(=O)[C@@H](NC(=O)c1ccc(C(=O)N2CCOCC2)cc1)C(C)C)C(C)C)C(F)(F)C(F)(F)F [MDL 104,226, (E)-N-[4-(4-Morpholinylcarbonyl)benzoyl]-L-valyl-N-[3,3,4,4,4-pentafluoro-1-(1-methylethyl)-2-(1-oxopropoxy)-1-butenyl]-L-prolinamide]
3 |  |  | significantly slower | CC(=O)OC(=C(NC(=O)[C@@H]1CCCN1C(=O)[C@@H](NC(=O)c1ccc(C(=O)N2CCOCC2)cc1)C(C)C)C(C)C)C(F)(F)C(F)(F)F [MDL 105,457, (Z)-N-[4-(4-Morpholinylcarbonyl)benzoyl]-L-valyl-N-[2-(acetyloxy)-3,3,4,4,4-pentafluoro-1-(1-methylethyl)-1-butenyl]-L-prolinamide]
4 |  |  | same time course | CC(C)C(=O)OC(=C(NC(=O)[C@@H]1CCCN1C(=O)[C@@H](NC(=O)c1ccc(C(=O)N2CCOCC2)cc1)C(C)C)C(C)C)C(F)(F)C(F)(F)F [MDL 105,658, (E)-N-[4-(4-Morpholinylcarbonyl)benzoyl]-L-valyl-N-[3,3,4,4,4-pentafluoro-1-(1-methylethyl)-2-(2-methyl-1-oxopropoxy)-1-butenyl]-L-prolinamide]

— patent US5698523A, “Acylated enol derivatives as prodrugs of elastase inhibitors” (Merrell Pharmaceuticals Inc., priority 1996, dated 1997)
